The source of these data is patent publication US9618513B2, “Compositions and methods for detecting and treating colorectal cancer” (The Regents of the University of Michigan, priority 2014, dated 2017).

Assay [1] deals with primary colon cancer cells. The experiment in a line: Colon cancer sphere assay, primary colon cancer cells. It counts as cell-based, human. The conditions noted are these: in the presence of IL-22, inhibitor 10 uM. How it is done: (A, B) IL-22 is expressed by immune cells in colon cancer tissues. Different cell populations were sorted from colon cancer tissues and IL-22 expression was measured by real time PCR. (5-10 donors, P<0.05). (C) IL-22 is spontaneously released by different immune cell populations in colon cancer tissues. Different CD45^+ immune subsets (10^6/ml) were sorted from colon cancer and blood, and cultured for 12 hours. IL-22 was detected via ELISA. (n=5, *P<0.05). (D, E) IL-22 is expressed by activated CD4^+ T cells in colon cancer tissues. CD45^+ subsets (10^6/ml) were sorted from colon cancer and blood, and were activated with anti-CD3 and anti-CD28 for 2 days. IL-22 was detected with ELISA (D) or intracellular staining (E). (n=5, *P<0.05). […] IL-22 mRNA was detected by real time PCR (F) and protein by ELISA (G). […] IL-22 expression was quantified with real-time PCR in the migrated and non-migrated cells. Results are expressed as the mean relative expression (H). The phenotype of migrated cells, non-migrated cells and control (before migration) was analyzed by FACS (I). […] The mRNA of stem cell core genes was detected by real-time PCR after 6 hours (K) and ALDH activity was detected by FACS after 48 hours (L). […]
(A) IL-22 induces H3K79me2 in colon cancer cells. […] Total histone modifications were analyzed by western blot. […] Sphere numbers were recorded. […] DOT1L complex gene expression was quantified by real-time PCR. […]

A further assay deals with colon cancer cells. The experiment in a line: Apoptosis by Annexin V FACS. It counts as cell-based, human. How it is done: FIG. 20A-D A. Realtime PCR was used to detected the mRNA level of p53, p21, CCNE1 after stimulated with IL-22 in primary colon cancer cell lines. B. The effect of IL-22 on colon cancer cell apoptosis was analyzed by Annexin V using FACS. C.D The effect of IL-22 on 5-Fu induced apoptosis was also analyzed by Annexin V.

On to `CC(C)N(CCCNC(=O)Nc1ccc(C(C)(C)C)cc1)C[C@H]1O[C@@H](n2ccc3c(N)ncnc32)[C@H](O)[C@@H]1O` [EPZ004777], for which, in assay [1], the “sphere formation induced by IL-22” value was “suppressed”.

For the compound “IL-22: recombinant IL-22 (R&D systems), cytokine interleukin-22”, the cell apoptosis entry with colon cancer cells (IL-22 combined with 5-FU) and in the assay on colon cancer cells (IL-22 stimulation alone) was “no change” throughout.
